Data taken from ChEMBL document CHEMBL1201862, “PubChem BioAssay data set” (2004).
Active and inactive are the calls of the source. Peptide text beside a SMILES is read from it. * marks the point of attachment. Boc = CC(C)(C)OC(=O)*

Experiments:
Cytochrome P450 2C19 = Cytochrome P450 2C19 (Homo sapiens, UniProt P33261); experiment: Cytochrome panel assay with activity outcomes. Panel member name: p450-cyp2c19 Compounds with AC50 equal or less than 10 uM are considered active; assay type: functional
Cytochrome P450 3A4 = Cytochrome P450 3A4 (Homo sapiens, UniProt P08684);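 further: CYP3A4 tested as one member of a cytochrome P450 panel screen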
[1] = target: T1, Corticotropin-releasing factor receptor 2/Corticotropin-releasing factor-binding protein (Homo sapiens, UniProt P24387+Q13324); experiment: Dose Response confirmation of uHTS hits for small molecule antagonists of the CRF-binding protein and CRF-R2 receptor complex.; assay type: functional; settings: read-out: IC50_Mean
T1 sequence (Q13324 whole entry): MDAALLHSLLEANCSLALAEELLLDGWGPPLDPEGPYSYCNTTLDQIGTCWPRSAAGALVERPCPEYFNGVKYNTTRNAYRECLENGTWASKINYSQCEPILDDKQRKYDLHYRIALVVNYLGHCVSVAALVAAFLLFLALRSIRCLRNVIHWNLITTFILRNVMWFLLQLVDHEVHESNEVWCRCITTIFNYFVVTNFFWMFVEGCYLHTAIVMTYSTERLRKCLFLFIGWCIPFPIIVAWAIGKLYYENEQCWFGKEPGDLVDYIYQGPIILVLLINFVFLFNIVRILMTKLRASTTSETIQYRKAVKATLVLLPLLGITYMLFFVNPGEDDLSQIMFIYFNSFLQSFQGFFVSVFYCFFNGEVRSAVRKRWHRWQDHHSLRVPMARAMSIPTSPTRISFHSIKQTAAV
T1 sequence (P24387 whole entry): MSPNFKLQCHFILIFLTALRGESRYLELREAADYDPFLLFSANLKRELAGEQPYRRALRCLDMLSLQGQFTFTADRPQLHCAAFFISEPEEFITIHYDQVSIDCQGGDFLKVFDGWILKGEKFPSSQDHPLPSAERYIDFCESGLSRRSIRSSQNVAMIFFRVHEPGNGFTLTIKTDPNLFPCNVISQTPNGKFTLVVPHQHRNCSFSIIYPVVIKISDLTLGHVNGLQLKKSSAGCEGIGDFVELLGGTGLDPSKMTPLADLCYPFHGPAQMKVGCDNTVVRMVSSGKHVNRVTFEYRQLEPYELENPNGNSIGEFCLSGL

[2] = target: T1, Corticotropin-releasing factor receptor 2/Corticotropin-releasing factor-binding protein; experiment: activators of CRF receptor 2 with binding protein – uHTS hits, confirmation (AID 602473); assay type: functional; settings: read-out: EC50_Mean
Cytochrome P450 2C9 = Cytochrome P450 2C9 (Homo sapiens, UniProt P11712)
Cytochrome P450 1A2 = target: T2, Cytochrome P450 1A2 (Homo sapiens, UniProt P05177);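 further: PubChem cytochrome P450 panel assay, CYP1A2 panel member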
T2 sequence (P05177 whole entry): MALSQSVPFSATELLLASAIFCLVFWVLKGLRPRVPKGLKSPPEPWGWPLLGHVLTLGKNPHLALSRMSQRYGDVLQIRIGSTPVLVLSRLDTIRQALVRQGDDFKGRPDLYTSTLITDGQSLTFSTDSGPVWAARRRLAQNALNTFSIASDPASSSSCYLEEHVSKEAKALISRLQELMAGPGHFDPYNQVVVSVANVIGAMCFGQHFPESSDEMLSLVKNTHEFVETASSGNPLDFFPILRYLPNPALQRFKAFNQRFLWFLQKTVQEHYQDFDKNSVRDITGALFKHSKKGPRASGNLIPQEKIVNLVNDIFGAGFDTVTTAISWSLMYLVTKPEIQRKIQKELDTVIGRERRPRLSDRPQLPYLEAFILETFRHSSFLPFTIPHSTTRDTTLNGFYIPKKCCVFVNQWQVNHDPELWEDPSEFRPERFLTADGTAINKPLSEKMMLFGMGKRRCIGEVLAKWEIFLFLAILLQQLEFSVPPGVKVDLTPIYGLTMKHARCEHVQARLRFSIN

[3] = tested on: Streptococcus sp. 'group A'; experiment: growth inhibition of control SK(-) GAS strain, dose response, counter-screen for streptokinase expression inhibitor project, luminescence, kanamycin, BacTiterGlo, confirmation (AID 1900); assay type: functional, organism-based
Streptokinase A = target: T3, Streptokinase A (Streptococcus pyogenes serotype M1, UniProt P10520); experiment: S. pyogenes streptokinase expression inhibitors, potency, dose response, plasminogen activation absorbance, OD405 (AID 1914); assay type: functional, Streptococcus pyogenes M1 GAS;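 further: secreted streptokinase activity via plasminogen activation per viability signal from cell pellet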
T3 sequence (P10520 whole entry): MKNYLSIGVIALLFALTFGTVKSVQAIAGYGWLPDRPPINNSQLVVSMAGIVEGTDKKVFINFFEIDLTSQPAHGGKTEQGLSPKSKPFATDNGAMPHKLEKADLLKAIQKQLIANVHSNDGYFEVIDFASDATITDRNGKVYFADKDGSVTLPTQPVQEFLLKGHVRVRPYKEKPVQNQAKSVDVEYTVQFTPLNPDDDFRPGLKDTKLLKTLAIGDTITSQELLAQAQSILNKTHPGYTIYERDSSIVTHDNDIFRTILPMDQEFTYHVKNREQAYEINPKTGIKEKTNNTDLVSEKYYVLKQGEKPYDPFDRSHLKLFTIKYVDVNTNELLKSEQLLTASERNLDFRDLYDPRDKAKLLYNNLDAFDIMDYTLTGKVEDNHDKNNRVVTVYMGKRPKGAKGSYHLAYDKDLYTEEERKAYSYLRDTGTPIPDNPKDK

Streptococcus = experiment: Group A Streptococcus viability loss, dose response, counter-screen for streptokinase expression inhibitor project, luminescence, BacTiterGlo (AID 1915); assay type: functional, organism-based;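 further: potency for reduction of bacterial viability or growth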
[4] = inhibitors of intracellular T. cruzi replication, confirmation, NIH3T3 host cells, beta-gal luminescence (AID 2044); assay type: functional, cell-based;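 further: intracellular parasites grown in NIH/3T3 mouse fibroblasts as host cells; luminescent beta-galactosidase reporter signal from transgenic T. cruzi replicating inside host cells; inhibitors lower the luminescence signal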
[5] = cytotoxicity toward NIH3T3 fibroblasts, dose response, counter-screen, cell-based, ATP luminescence, mouse fibroblasts (AID 2010); assay type: functional;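 further: cells exposed to compound for about 90 hours before reading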
[6] = Luminescence Cell-Based Dose Retest to Confirm Inhibitors of Cancer Stem Cells. [Related pubchem assays (depositor defined):AID2717, AID2721]; assay type: functional; settings: Homo sapiens

Chain of Cytochrome P450 2C9 (P11712 whole entry): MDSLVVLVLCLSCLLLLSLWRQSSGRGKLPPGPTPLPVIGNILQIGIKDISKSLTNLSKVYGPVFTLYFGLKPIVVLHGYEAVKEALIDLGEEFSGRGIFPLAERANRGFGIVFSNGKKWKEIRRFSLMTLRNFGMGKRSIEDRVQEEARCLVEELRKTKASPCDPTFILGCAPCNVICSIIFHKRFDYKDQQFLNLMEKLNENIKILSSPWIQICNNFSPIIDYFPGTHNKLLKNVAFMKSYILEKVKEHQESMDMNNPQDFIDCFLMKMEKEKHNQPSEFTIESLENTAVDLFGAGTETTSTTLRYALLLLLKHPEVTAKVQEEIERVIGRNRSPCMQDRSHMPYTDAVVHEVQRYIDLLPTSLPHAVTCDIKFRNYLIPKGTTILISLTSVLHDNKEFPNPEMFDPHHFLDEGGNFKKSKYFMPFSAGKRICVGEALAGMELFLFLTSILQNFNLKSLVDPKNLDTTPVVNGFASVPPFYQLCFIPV
Chain of Cytochrome P450 3A4 (P08684 whole entry): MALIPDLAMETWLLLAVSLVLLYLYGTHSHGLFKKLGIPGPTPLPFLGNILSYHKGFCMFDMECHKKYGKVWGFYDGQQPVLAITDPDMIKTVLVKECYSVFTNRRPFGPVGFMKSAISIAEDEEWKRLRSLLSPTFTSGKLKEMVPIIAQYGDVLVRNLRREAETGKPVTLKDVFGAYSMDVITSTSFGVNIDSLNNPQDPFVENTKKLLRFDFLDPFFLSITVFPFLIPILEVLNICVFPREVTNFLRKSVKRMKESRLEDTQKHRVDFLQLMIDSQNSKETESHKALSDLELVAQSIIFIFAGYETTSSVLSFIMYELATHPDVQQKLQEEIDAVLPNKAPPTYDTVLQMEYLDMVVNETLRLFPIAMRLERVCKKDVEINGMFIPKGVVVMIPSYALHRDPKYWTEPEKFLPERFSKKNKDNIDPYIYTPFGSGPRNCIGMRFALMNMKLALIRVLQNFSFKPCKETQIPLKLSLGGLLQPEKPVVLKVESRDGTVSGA
Chain of Cytochrome P450 2C19 (P33261 whole entry): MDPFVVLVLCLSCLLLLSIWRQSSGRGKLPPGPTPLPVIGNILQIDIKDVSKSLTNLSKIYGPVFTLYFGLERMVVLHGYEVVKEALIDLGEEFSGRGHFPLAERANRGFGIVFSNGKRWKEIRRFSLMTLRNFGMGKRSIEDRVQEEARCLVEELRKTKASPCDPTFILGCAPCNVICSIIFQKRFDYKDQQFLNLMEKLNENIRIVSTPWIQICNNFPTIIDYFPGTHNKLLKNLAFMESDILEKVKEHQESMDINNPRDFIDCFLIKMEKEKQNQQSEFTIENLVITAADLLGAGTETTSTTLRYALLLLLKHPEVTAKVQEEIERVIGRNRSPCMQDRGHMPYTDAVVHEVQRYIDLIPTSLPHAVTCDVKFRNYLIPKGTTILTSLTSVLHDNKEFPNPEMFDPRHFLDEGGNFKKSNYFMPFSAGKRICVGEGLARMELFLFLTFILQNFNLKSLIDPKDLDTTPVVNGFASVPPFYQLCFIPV

| Compound | AC50 (Cytochrome P450 2C19; read-out: AC50) | AC50 (Cytochrome P450 2C9) | AC50 (Cytochrome P450 1A2) | also measured |
| --- | --- | --- | --- | --- |
| CCN1CN=C(S)N(c2cc(C)ccc2C)C1 | 39.8 µM (inconclusive) | – | – | AC50 (Cytochrome P450 3A4): 20 µM (inconclusive) |
| CCCCCN(C(=O)CCC(=O)OCC(=O)c1c(C)cc(C)cc1C)c1c(N)n(CCCC)c(=O)[nH]c1=O | – | – | – | IC50 [1]: > 47.1 µM (inactive); EC50 [2]: > 53 µM (inactive) |
| COCCn1c(=O)c(-c2ccc(F)cc2)nc2cnc(Oc3ccccc3)nc21 | – | 10 µM (inconclusive) | – | AC50 (Cytochrome P450 3A4): 15.8 µM (inconclusive) |
| O=C1C[C@H](c2ccccc2)[C@@H](c2ccc(Br)cc2)O1 | – | 3.16 µM (inconclusive) | – | – |
| N#CC1=C(N)OC2=C(C(=O)CCC2)C12CCC1(CC2)OCCO1 | – | – | 25.1 µM (inconclusive) | – |
| O=C(O)C1CCCN1C(=O)OCc1ccccc1 (stereo not drawn) | 15.8 µM (inconclusive) | – | – | – |
| Cc1cc(S(=O)(=O)c2cc3ccc(O)c(C)c3oc2=O)ccc1F | – | – | – | EC50 [2]: 5.8 µM (active) |
| O=C(O)c1ccccc1C(=O)NCc1ccc(F)cc1 | 28.2 µM (inconclusive) | – | – | – |
| CS(=O)(=O)Nc1cccc(-c2ccc3ncnc(NC4CC4)c3c2)c1 | – | – | – | AC50 (Cytochrome P450 2C19): inconclusive |
| O=C(COc1ccc([N+](=O)[O-])cc1)NCc1ccccc1 | 7.94 µM (inconclusive) | 17.8 µM (inconclusive) | – | – |
| O=C1c2ccccc2-c2ccc(NC(=O)[C@H]3CCCC[C@@H]3C(=O)O)cc21 | – | – | 1 µM (inconclusive) | – |
| COc1ccc2oc(-c3ccc(C)c(NC(=O)c4ccc(N5CCOCC5)c([N+](=O)[O-])c4)c3)nc2c1 | 5.62 µM (inconclusive) | 3.16 µM (inconclusive) | – | – |
| CCn1c(COc2ccc(C)cc2)nnc1SCc1ccc(C#N)cc1 | – | – | 28.2 µM (inconclusive) | EC50 [3]: > 150 µM (not active); EC50 (Streptokinase A): > 150 µM (not active); EC50 (Streptococcus): > 150 µM (not active) |
| N[C@H](C(=O)O)[C@@H]1[C@@H](C(=O)O)C1(F)F | – | – | 31.6 µM (inconclusive) | – |
| O=c1cnc2cncnc2n1Cc1ccc(F)cc1 | 39.8 µM (inconclusive) | – | – | AC50 (Cytochrome P450 3A4): 20 µM (inconclusive) |
| C=CCNC(=O)CC(=O)N/N=C/c1cccc(Br)c1 | 0.2 µM (inconclusive) | – | – | – |
| Cn1c(SCC(=O)NC2CC2)nnc1-c1cccc(NC(=O)c2ccccc2F)c1 | – | 17.8 µM (inconclusive) | – | – |
| CCOC(=O)c1c(C)n(C)c2ccc(OC(=O)c3ccco3)cc12 | – | 1.12 µM (inconclusive) | – | – |
| CCc1cc(C(=O)OC)c(NC(=O)CCCC(=O)O)s1 | – | 28.2 µM (inconclusive) | 25.1 µM (inconclusive) | – |
| Nc1cc(N)nc(SCC(=O)NNC(=O)c2ccc(Cl)cc2)n1 | 39.8 µM (inconclusive) | 28.2 µM (inconclusive) | 15.8 µM (inconclusive) | AC50 (Cytochrome P450 3A4): 14.1 µM (inconclusive) |
| Clc1ccc(CSc2ncnc3c2ncn3[C@@H]2CCCCO2)cc1 | – | – | 1.58 µM (inconclusive) | – |
| CCOc1ccc(OCCOCCN2CCc3ccccc3C2)cc1 | – | 11.2 µM (inconclusive) | 20 µM (inconclusive) | EC50 [4]: 0.124 µM (active); EC50 [5]: 21 µM (active); AC50 (Cytochrome P450 3A4): 25.1 µM (inconclusive) |

| Compound | AC50 (Cytochrome P450 2C19; read-out: AC50) | AC50 (Cytochrome P450 2C9) | AC50 (Cytochrome P450 1A2) | also measured |
| --- | --- | --- | --- | --- |
| NC(=O)Nc1n[nH]c(-c2ccccc2)n1 | – | – | 3.16 µM (inconclusive) | – |
| C[C@H]1C2=C3C(CC[C@H]4C(OCc5ccc(F)cc5C(F)(F)F)OC[C@](C)([C@@H]34)N(C(=O)OC(C)(C)C)C2)C(CO)C1CO (stereo partly drawn) | 39.8 µM (inconclusive) | 39.8 µM (inconclusive) | – | – |
| CC(C)C(NC(=O)OC(C)(C)C)C(=O)N1CCCC1C(=O)NC(Cc1ccccc1)C(N)=O (stereo not drawn) (Boc-Val-Pro-Phe-NH2; configuration not given here) | 1.12 µM (inconclusive) | 31.6 µM (inconclusive) | 2 µM (inconclusive) | AC50 (Cytochrome P450 3A4): 15.8 µM (inconclusive) |
| CC(C)NC[C@@H](O)c1ccc(O)c2ncccc12 | – | – | – | AC50 (Cytochrome P450 2C19): inconclusive |
| c1cncc(-c2cncnc2NC2CCNCC2)c1 | – | – | 12.6 µM (inconclusive) | – |
| CC(C)(C)C(=O)Nc1cccc(-c2nc3ccccc3c(=O)o2)c1 | 35.5 µM (inconclusive) | – | – | AC50 (Cytochrome P450 3A4): 25.1 µM (inconclusive) |
| Oc1cc(O)c2c(c1)O[C@H](c1ccc(O)c(O)c1)[C@@H](O)[C@@H]2c1c(O)cc(O)c2c1O[C@@H](c1ccc(O)c(O)c1)[C@H](O)C2 | – | – | 2.51 µM (inconclusive) | – |
| COC(=O)c1ccccc1OCC(=O)N1CCN(c2ccc(OC)cc2)CC1 | – | 17.8 µM (inconclusive) | – | – |
| CN(Cc1cc2ccccc2[nH]c1=O)S(C)(=O)=O | – | – | 28.2 µM (inconclusive) | – |
| c1ccc(-c2csc(Nc3nc(N4CCOCC4)nc(N4CCOCC4)n3)n2)cc1 | 5.62 µM (inconclusive) | 3.16 µM (inconclusive) | 5.62 µM (inconclusive) | EC50 [4]: 0.104 µM (active); EC50 [5]: > 30 µM (not active); AC50 (Cytochrome P450 3A4): 10 µM (inconclusive) |
| O=c1c(-c2ccc(F)c(F)c2)nc2cncnc2n1-c1ccccc1 | – | 15.8 µM (inconclusive) | – | AC50 (Cytochrome P450 3A4): 20 µM (inconclusive) |
| O=C(/C=C/c1ccccc1)NC(NC(=S)Nc1cccc(Cl)c1)C(Cl)(Cl)Cl (stereo not drawn) | – | – | – | EC50 [3]: 3.62 µM (active); EC50 (Streptokinase A): > 150 µM (not active); EC50 [4]: 1.68 µM (active); EC50 [5]: > 60 µM (inconclusive); EC50 (Streptococcus): 6.3 µM (active) |
| O=S(=O)(N=C(Nc1ccccn1)c1ccccc1)c1ccccc1 | 15.8 µM (inconclusive) | – | 14.1 µM (inconclusive) | AC50 (Cytochrome P450 3A4): 28.2 µM (inconclusive) |
| CS(=O)(=O)Nc1ccc(Cc2noc(-c3ccc4[nH]cc(CCN)c4c3)n2)cc1 [L-694247] | – | 31.6 µM (inconclusive) | – | – |
| O=S1(=O)[C@@H](c2ccccc2)[C@H](N2CCCCC2)[C@H]1[C@H]1C[C@H]2c3ccccc3[C@@H]1c1ccccc12 | – | 7.94 µM (inconclusive) | – | – |
| O=C(Nc1cccnc1)c1ccc2snnc2c1 | 17.8 µM (inconclusive) | 25.1 µM (inconclusive) | – | – |
| CC(=O)Nc1cccc(C(=O)OCc2ccc(C(=O)Oc3ccc(Cl)cc3)cc2)c1 | – | 1.12 µM (inconclusive) | – | – |
| CCC(C(=O)Nc1ccc(C(C)C)cc1)c1ccccc1 (stereo not drawn) | – | – | – | EC50 [2]: 6.87 µM (active) |
| COC(=O)c1[nH]c(C)c(C(=O)C2=C(O)C(=O)N(CCN(C)C)C2c2cccs2)c1C (stereo not drawn) | 14.1 µM (inconclusive) | – | – | – |
| CC(C)(C)C1CCc2c(C(=O)N/N=C/c3cccs3)csc2C1 (stereo not drawn) | – | 7.94 µM (inconclusive) | – | – |
| CCN(CC)c1ccc(NC(=O)CN2CCN(c3ccccc3F)CC2)cc1 | – | – | 28.2 µM (inconclusive) | AC50 (Cytochrome P450 3A4): 15.8 µM (inconclusive) |
| O=C(CN1c2ccccc2Sc2ccccc21)NNC(=O)Nc1ccc(Cl)c(Cl)c1 | – | – | – | EC50 [3]: 2.45 µM (active); EC50 (Streptokinase A): > 150 µM (not active); EC50 (Streptococcus): 5.49 µM (active); AC50 [6]: 3.05 µM (active) |
